Patent publication US20040204455A1, “Piperidine derivative rennin inhibitors” (priority 2003, published 2004)

Molecular target: T1, human renin (Homo sapiens, UniProt P00797)
T1 sequence (P00797 67-406): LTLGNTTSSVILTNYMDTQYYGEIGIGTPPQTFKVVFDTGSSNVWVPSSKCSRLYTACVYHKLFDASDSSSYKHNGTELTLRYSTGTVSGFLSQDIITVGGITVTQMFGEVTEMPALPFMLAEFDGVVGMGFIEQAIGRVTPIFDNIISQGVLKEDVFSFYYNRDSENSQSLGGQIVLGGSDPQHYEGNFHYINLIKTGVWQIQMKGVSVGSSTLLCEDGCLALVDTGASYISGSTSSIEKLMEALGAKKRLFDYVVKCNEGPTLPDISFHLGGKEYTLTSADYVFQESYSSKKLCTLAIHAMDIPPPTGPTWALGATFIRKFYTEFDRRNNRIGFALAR
Experiment: Determination of Renin IC50 by tGFP FRET Assay
Assay type: biochemical
Details: Human recombinant renin, tandem GFP substrate 650 nM, renin and compound incubated 60 minutes before substrate, pH 7.4
Source text: Determination of Renin IC50 by tGFP FRET Assay
The tGFP FRET (Green Fluorescent Protein Fluorescence Resonance Energy Transfer) assay utilizes a tandem GFP substrate (60 kDa) containing nine amino acid recognition sequences for human renin flanked by two GFP proteins. The assay is used to determine the ability of a compound to act as an inhibitor of renin enzymatic activity by determination of that concentration of test compound that inhibits by 50% (IC50) the ability of renin to cleave the tandem GFP substrate. The IC50 values are determined over an 11-point curve at concentrations of 100 μM to […]. Each compound concentration used to construct the curve was dependent on renin inhibitor potency. For example, subnanomolar IC50 values were determined over an 11-point curve at concentrations of 10 μM to […]. All other IC50 values were determined over an 11-point curve at concentrations of 100 μM to 0.0065 μM. The concentrations were achieved by diluting a 9.1 nM stock of Human recombinant renin in the appropriate amount of buffer containing 50 mM HEPES, 1 mM EDTA, 1% PEG (8000 MW), 1 mM DTT, 0.1% BSA, pH 7.4 to achieve the final concentration of 50.4 μIU. The tGFP substrate stock solution of 43 μM was diluted with the appropriate amount of the above buffer to obtain the final concentration of 650 nM. In addition, 1 μl of the compound is diluted in DSMO to represent an […] log scale (5% final). The renin and compound are added to a 384 capacity plate by an automated robot (BIOMEK). The plate is incubated for 60 minutes; upon completion the tGFP substrate is added.
The IC50 is determined by monitoring the increase in […] at 432/432 nm excitation, 530/475 nm emission with a cutoff at 515/455 nm, in a fluorometric plate reader.

Compound	IC50 [µM]
O=C1CCC(=O)N1CCOc1cccc(CN[C@H]2CNCC[C@H]2c2ccc(OCCCOCc3ccccc3F)cc2)c1 (racemic) [1-(2-{3-[(4-{4-[3-(2-Fluoro-benzyloxy)-propoxy]-phenyl}-piperidin-3-ylamino)-methyl]-phenoxy}-ethyl)-pyrrolidine-2,5-dione]	1.4
O=C1CCCN1CCOc1cccc(CN[C@H]2CNCC[C@H]2c2ccc(OCCCOCc3ccccc3F)cc2)c1 (racemic) [1-(2-{3-[(4-{4-[3-(2-Fluoro-benzyloxy)-propoxy]-phenyl}-piperidin-3-ylamino)-methyl]-phenoxy}-ethyl)-pyrrolidine-2-one]	0.932
COC(=O)c1cccc(CN[C@@H]2CNCC[C@@H]2c2ccc(OCCCOCc3ccccc3F)cc2)n1 (racemic) [6-[(4-{4-[3-(2-Fluoro-benzyloxy)-propoxy]-phenyl}-piperidin-3-ylamino)-methyl]-pyridine-2-carboxylic acid methyl ester]	6.98
COc1ccccc1COCCCOc1ccc([C@H]2CCNC[C@H]2NCc2ccc3cc(O)ccc3c2)cc1 (racemic) [6-[(4-{4-[3-(2-methoxy-benzyloxy)-propoxy]-phenyl}-piperidin-3-ylamino)-methyl]-naphthalen-2-ol]	> 1
Fc1ccccc1COCCCOc1ccc([C@@H]2CCNC[C@@H]2NCc2ccc(F)c(C(F)(F)F)c2)cc1 (racemic) [(4-{4-[3-(2-fluoro-benzyloxy)-propoxy]-phenyl}-piperidin-3-yl)-(4-fluoro-3-trifluoromethyl-benzyl)-amine]	0.454
COc1ccccc1COCCCOc1ccc([C@H]2CCNC[C@H]2N(C)Cc2ccc3ccccc3c2)cc1 (racemic) [(4-{4-[3-(2-methoxy-benzyloxy)-propoxy]-phenyl}-piperidin-3-yl)-methyl-naphthalen-2-ylmethyl-amine]	0.573
COc1ccccc1COCCCOc1ccc([C@H]2CCNC[C@H]2NCc2ccc3ccccc3c2)cc1 (racemic) [(4-{4-[3-(2-methoxy-benzyloxy)-propoxy]-phenyl}-piperidin-3-yl)-naphthalen-2-ylmethyl-amine]	0.087
COc1ccccc1COCCCOc1ccc([C@H]2CCNC[C@H]2NCc2ccc3cccnc3c2)cc1 (racemic) [(4-{4-[3-(2-methoxy-benzyloxy)-propoxy]-phenyl}-piperidin-3-yl)-quinolin-7-ylmethyl-amine]	0.175
COc1ccccc1COCCCOc1ccc([C@H]2CCNC[C@H]2NC(=O)c2cccc3ccccc23)cc1 (racemic) [naphthalene-1-carboxylic acid (4-{4-[3-(2-methoxy-benzyloxy)-propoxy]-phenyl}-piperidin-3-yl)-amide]	> 1
COC(=O)COc1cccc(CN[C@H]2CNCC[C@H]2c2ccc(OCCCOCc3ccccc3F)cc2)c1 (racemic) [{3-[(4-{4-[3-(2-Fluoro-benzyloxy)-propoxy]-phenyl}-piperidin-3-ylamino)-methyl]-phenoxy}-acetic acid methyl ester]	0.924
COC(=O)c1cccc2cc(CN[C@@H]3CNCC[C@@H]3c3ccc(OCCCOCc4ccccc4OC)cc3)ccc12 [6-[(4-[3-(2-methoxy-benzyloxy)-propoxyl]-phenyl}-piperidin-3-ylamino)-methyl]-naphthalene-1-carboxylic acid methyl ester]	0.282
COc1ccccc1COCCCOc1ccc([C@H]2CCNC[C@H]2NCc2ccc3c(C(=O)O)cccc3c2)cc1 [6-[(4-[4-(2-methoxy-benzyloxy)-propoxyl]-phenyl}-piperidin-3-ylamino)-methyl]-naphthalene-1-carboxylic acid]	2.6
O=C(O)c1ccc2cc(CN[C@@H]3CNCC[C@@H]3c3ccc(OCCCOCc4ccccc4F)cc3)ccc2c1 [6-[(4-{4-[3-(2-Fluoro-benyloxy)-propoxy]-phenyl}-piperidin-3-ylamino)-methyl]-naphthalene-2-carboxylic acid]	> 1
COC(=O)c1ccc2cc(CN[C@@H]3CNCC[C@@H]3c3ccc(OCCCOCc4ccccc4OC)cc3)ccc2c1 [6-[(4-{4-[3-(2-Methoxy-benyloxy)-propoxy]-phenyl}-piperidin-3-ylamino)-methyl]-naphthalene-2-carboxylic acid methyl ester]	0.329

Further lines, results first:

IC50 [µM]	Compound
> 1	COc1ccccc1COCCCOc1ccc([C@H]2CCNC[C@H]2NCc2ccc3[nH]ccc3c2)cc1 (racemic) [(1H-indol-5-ylmethyl)-(4-{4-[3-(2-methoxy-benzyloxy)-propoxy]-phenyl}-piperidin-3-yl)-amine]
0.226	COc1ccccc1COCCCOc1ccc([C@H]2CCNC[C@H]2NCc2ccc3c(c2)NCCC3)cc1 (racemic) [(4-{4-[3-(2-methoxy-benzyloxy)-propoxy]-phenyl}-piperidin-3-yl)-(1,2,3,4-tetrahydro-quinolin-7-ylmethyl)-amine]
0.0743	COc1ccc2cc(CN[C@@H]3CNCC[C@@H]3c3ccc(OCCCOCc4ccccc4OC)cc3)ccc2c1 (racemic) [(4-{4-[3-(2-methoxy-benzyloxy)-propoxy]-phenyl}-piperidin-3-yl)-(6-methoxy-naphthalen-2-ylmethyl)-amine]
0.693	O=S(=O)(N[C@@H]1CNCC[C@@H]1c1ccc(OCCCOCc2ccccc2F)cc1)c1ccc2ccccc2c1 (racemic) [Naphthalene-2-sulfonic acid (4-{4-[3-(2-fluoro-benzyloxy)-propoxy]-phenyl}-piperidin-3-yl)-amide]
> 1	COc1ccccc1COCCCOc1ccc([C@H]2CCNC[C@H]2NCc2ccc3c(c2)N(CCN(C)C)CCC3)cc1 (racemic) [[1-(2-dimethylamino-ethyl)-1,2,3,4-tetrahydro-quinolin-7-ylmethyl]-(4-{4-[3-(2-methoxybenzyloxy)-propoxy]-phenyl}-piperidin-3-yl)-amine]
0.393	COc1ccccc1COCCCOc1ccc([C@H]2CCNC[C@H]2NCc2ccc3occc3c2)cc1 (racemic) [benzofuran-5-ylmethyl-(4-{4-[3-(2-methoxy-benzyloxy)-propoxy]-phenyl}-piperidin-3-yl)-amine]
0.877	COC(=O)c1ccc2cc(CN[C@@H]3CNCC[C@@H]3c3ccc(OCCCOCc4ccccc4F)cc3)ccc2c1 [6-[(4-{4-[3-(2-Fluoro-benyloxy)-propoxy]-phenyl}-piperidin-3-ylamino)-methyl]-naphthalene-2-carboxylic acid methyl ester]
